Values of other authors as cited in patent US20230056488A1, “COMPOSITION, ARTICLE AND METHOD FOR AFFECTING A MAMMAL” (COOLHOUSE SOURCING LLC, priority 2020, published 2023).

Experiments:
[1] = laboratory and animal research
[2] = system: ionotropic glutamate receptors
[3] = in vivo
[4] = oral and parenteral forms

In the case of `CCCCCc1cc(O)c2c(c1)OC(C)(C)[C@@H]1CCC(C)=C[C@@H]21` [THC, tetrahydrocannabinol], the toxicity to dogs is given as “toxic to dogs”.
In the case of `CCCc1cc(O)c2c(c1)OC(C)(C)[C@@H]1CCC(C)=C[C@@H]21` [THCV, Tetrahydrocannabivarin], the anti-inflammatory effects [1] is listed as “some anti-inflammatory effects”.
For `CCNC(=O)CC[C@H](N)C(=O)O` [Theanine, theanine], the “binding to ionotropic glutamate receptors (AMPA and kainate receptors; lesser extent NMDA)” value [2] is listed as “micromolar range” and the “crossing of the blood brain barrier” value [3] is listed as “cross the blood brain barrier (“BBB”) intact”.
For `C[S@@+](CC[C@H](N)C(=O)[O-])C[C@H]1O[C@@H](n2cnc3c(N)ncnc32)[C@H](O)[C@@H]1O` [SAMe, (S)-2-amino-4-((SS)-(((2S,3S,4R,5R)-5-(6-amino-9H-purin-9-yl)-3,4-dihydroxytetrahydrofuran-2-yl)methyl)(methyl)sulfonio)butanoate], the “crossing of the blood-brain barrier / cerebrospinal fluid concentrations” value [4] is listed as “cross the blood-brain barrier and increase concentrations in cerebrospinal fluid”.
